Source: US5637609A, “2-phenylpyrrole derivatives as dopamine D3 receptor antagonists” (SmithKline Beecham plc, priority 1993, dated 1997)
pIC50: −log10 of the molar value. Structures can show the parent of a compound that is named as a salt.

Target: T1, human D3 dopamine receptors (Homo sapiens, UniProt P35462)
T1 construct: expressed in transfected cells; host or cells: CHO cells
Experiment: [125I] iodosulpride displacement binding to cloned human D3 dopamine receptors expressed in CHO cells
Details: displacement of 0.1 nM [125I] iodosulpride, CHO cell membranes, 30 min at 37° C.; read-out: IC50 values at the human D3 receptor
Experimental: The inhibition constants (Ki) of test compounds for displacement of [^125 I] iodosulpride binding to human D2 and D3 dopamine receptors expressed in CHO cells have been determined. […] Cultures were grown as monolayers or in suspension in standard cell culture media. Cells were recovered by scraping (from monolayers) or by centrifugation (from suspension cultures), and were washed two or three times by suspension in phosphate buffered saline followed by collection by centrifugation. Cell pellets were stored frozen at -40° C. Crude cell membranes were prepared by homogenisation followed by high-speed centrifugation, and characterisation of cloned receptors achieved by radioligand binding.
Cell pellets were gently thawed at room temperature, and resuspended in about 20 volumes of ice-cold 50 mM Tris salts (pH 7.4@37° C.), 20 mM EDTA, 0.2M sucrose. The suspension was homogenised using an Ultra-Turrax at full speed for 15 sec. The homogenate was centrifuged at 18,000 r.p.m for 20 min at 4° C. in a Sorvall RC5C centrifuge. […] The final pellet was resuspended in 50 mM Tris salts (pH 7.4@37° C.), and the protein content determined using bovine serum albumin as a standard (Bradford, M. M. (1976) Anal. Biochem. 72, 248-254). […]
Competition curves were analysed simultaneously whenever possible using non-linear least-squares fitting procedures, capable of fitting one, two or three site models.

T1 sequence (P35462 whole entry): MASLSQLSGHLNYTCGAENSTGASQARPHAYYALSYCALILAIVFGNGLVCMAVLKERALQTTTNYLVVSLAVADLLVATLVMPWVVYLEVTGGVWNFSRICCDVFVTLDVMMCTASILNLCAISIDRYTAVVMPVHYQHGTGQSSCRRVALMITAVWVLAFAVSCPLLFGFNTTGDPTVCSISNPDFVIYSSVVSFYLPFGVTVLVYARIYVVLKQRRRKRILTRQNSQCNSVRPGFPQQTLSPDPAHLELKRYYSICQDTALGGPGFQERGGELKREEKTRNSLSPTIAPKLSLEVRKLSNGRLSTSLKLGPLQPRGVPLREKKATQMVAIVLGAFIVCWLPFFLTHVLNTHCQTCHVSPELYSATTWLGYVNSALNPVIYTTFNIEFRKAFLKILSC

SMILES	pIC50
CCN(Cc1ccc(-c2cc(S(=O)(=O)CC)ccc2OC)[nH]1)C1CCCc2ccccc21 (centres unmarked) [Example 1, 2-(5-Ethylsulfonyl-2-methoxyphenyl)-5-[N-ethyl-N-1-(1,2,3,4-tetrahydronaphthyl)aminomethyl]-1H-pyrrole hydrochloride]	> 8.30
CCN(Cc1ccc(-c2cc(S(=O)(=O)CC)ccc2OC)[nH]1)C1CCc2ccccc21 (centres unmarked) [Example 2, 2-(5-Ethylsulfonyl-2-methoxyphenyl)-5-[N-ethyl-N-1-(indanyl)aminomethyl]-1H-pyrrole, hydrochloride]	> 8.30
